Reference: patent US8791144B2, “Substituted N-phenyl-1-(4-Pyridinyl)-1H-pyrazol-3-amines” (Janssen Pharmaceutica NV, priority 2009, dated 2014)

Tests used:
hα7-wt nAChR [1] = target: T1, hα7-wt nAChR (Homo sapiens, UniProt P36544); assay: Patch-clamp current recording (whole-cell voltage clamp), potentiation of choline current and PAM type; format: cell-based; set-up: key: Type 0 compounds minimally enhance the effect size of the current elicited by 1 mM choline.; Type 1 compounds enhance the effect size of the current elicited by 1 mM choline but minimally alter the kinetics of the receptor.; Type 2 compounds enhance the effect size of the current elicited by 1 mM choline while reducing the rate and/or the extent of desensitization.; Type 3 compounds enhance the effect size of the current elicited by 1 mM choline. When tested at higher concentrations up to 10 μM they completely inhibit desensitization, in particular a 1 mM choline application of 250 milliseconds.; Type 4 compounds allow for an initial desensitization of the receptor followed by a re-opening of the receptor during agonist application; details: hα7-wt nAChR-expressing GH4C1 cells, 1 mM choline
T1 sequence (P36544 23-502): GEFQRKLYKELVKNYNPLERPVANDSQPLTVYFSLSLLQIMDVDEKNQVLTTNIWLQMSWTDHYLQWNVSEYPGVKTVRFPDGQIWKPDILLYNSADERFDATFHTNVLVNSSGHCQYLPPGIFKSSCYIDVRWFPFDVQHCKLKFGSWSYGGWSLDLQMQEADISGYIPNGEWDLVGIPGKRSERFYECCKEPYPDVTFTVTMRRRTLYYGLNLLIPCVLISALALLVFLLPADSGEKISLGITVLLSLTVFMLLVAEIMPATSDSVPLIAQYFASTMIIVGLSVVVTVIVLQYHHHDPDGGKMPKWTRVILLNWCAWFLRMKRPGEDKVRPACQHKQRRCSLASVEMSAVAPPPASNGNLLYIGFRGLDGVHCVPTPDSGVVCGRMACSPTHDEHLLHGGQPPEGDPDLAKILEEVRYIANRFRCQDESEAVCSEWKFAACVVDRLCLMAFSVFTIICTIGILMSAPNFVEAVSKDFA
In short: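 GH4C1 cells stably expressing human wild-type α7 nAChR, whole-cell voltage clamp at −70 mV with rapid application (<100 ms); compound co-applied with 1 mM choline. Peak current potentiation expressed relative to choline-alone response (=100%); compounds reaching ≥200% assigned PAM type 0–4 by current kinetics and desensitization.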

hα7-wt nAChR [2] = target: T1, hα7-wt nAChR; assay: Ca2+ flux imaging (FDSS): potentiation of the choline response; format: cell-based; details: Ca2+ assay as described in D.1; potentiation of choline response, hα7-wt nAChR; read-out: Potency (pEC50) (converted)
In short: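 Cells expressing human α7-wt nAChR loaded with fluo-4AM (2 μM final) up to 120 min; HBSS/10 mM HEPES/5 mM CaCl2/0.1% BSA buffer. Compound (0.01–30 μM) applied up to 10 min before 100 μM choline; peak fluorescence measured on FDSS relative to choline alone (100%). EC50 from sigmoidal curves.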

Compound	melting point [°C]	PAM type (hα7-wt nAChR [1])	EC50 (hα7-wt nAChR [2]) [nM]
Cc1cc(-n2nc(Nc3cccc(OC(F)(F)F)c3)cc2CC(=O)NC(C)C)ccn1 [Compound 115, N-(1-methylethyl)-1-(2-methyl-4-pyridinyl)-3-[[3-(trifluoromethoxy)phenyl]amino]-1H-pyrazole-5-acetamide]	228.3	1	389
Cc1cc(-n2nc(Nc3cccc(OC(F)(F)F)c3)cc2CC(=O)NC2CC2)ccn1 [Compound 117, N-cyclopropyl-1-(2-methyl-4-pyridinyl)-3-[[3-(trifluoromethoxy)phenyl]amino]-1H-pyrazole-5-acetamide]	224.6	3	1200
Cc1cc(-n2nc(Nc3ccc(F)c(F)c3)cc2COCc2ccccc2)ccn1 [Compound 31, N-(3,4-difluorophenyl)-1-(2-methyl-4-pyridinyl)-5-[(phenylmethoxy)methyl]-1H-pyrazol-3-amine]	171	0	1150
CCNC(=O)Cc1cc(Nc2cccc(OC(F)(F)F)c2)nn1-c1ccnc(C)c1 [Compound 113, N-ethyl-1-(2-methyl-4-pyridinyl)-3-[[3-(trifluoromethoxy)phenyl]amino]-1H-pyrazole-5-acetamide]	210.3	3	1150
Cc1cc(-n2nc(Nc3ccc4c(c3)OC(F)(F)O4)cc2CC(=O)NC2CCC2)ccn1 [Compound 102, N-cyclobutyl-3-[(2,2-difluoro-1,3-benzodioxol-5-yl)amino]-1-(2-methyl-4-pyridinyl)-1H-pyrazole-5-acetamide]	237.7	2	240
Cc1cc(-n2nc(Nc3ccc4c(c3)OC(F)(F)O4)cc2CC(=O)NCC2CC2)ccn1 [Compound 101, N-(cyclopropylmethyl)-3-[(2,2-difluoro-1,3-benzodioxol-5-yl)amino]-1-(2-methyl-4-pyridinyl)-1H-pyrazole-5-acetamide]	232.3	2	603
Cc1cc(-n2nc(Nc3cccc(OC(F)(F)F)c3)cc2CC(=O)NC2CCC2)ccn1 [Compound 121, N-cyclobutyl-1-(2-methyl-4-pyridinyl)-3-[[3-(trifluoromethoxy)phenyl]amino]-1H-pyrazole-5-acetamide]	227.7	2	417
COc1cc(Cl)cc(Nc2cc(CC(=O)NC3CCC3)n(-c3ccnc(C)c3)n2)c1 [Compound 83, 3-[(3-chloro-5-methoxyphenyl)amino]-N-cyclobutyl-1-(2-methyl-4-pyridinyl)-1H-pyrazole-5-acetamide]	236.4	4	145
CCNC(=O)Cc1cc(Nc2cccc(OC(F)(F)F)c2)nn1-c1cc(C)nc(C)c1 [Compound 114, 1-(2,6-dimethyl-4-pyridinyl)-N-ethyl-3-[[3-(trifluoromethoxy)phenyl]amino]-1H-pyrazole-5-acetamide]	224.2	2	309
CCNC(=O)Cc1cc(Nc2cccc(Cl)c2F)nn1-c1ccnc(C)c1 [Compound 73, 3-[(3-chloro-2-fluorophenyl)amino]-N-ethyl-1-(2-methyl-4-pyridinyl)-1H-pyrazole-5-acetamide]	205.1	3	1260
COc1cc(Nc2cc(CC(=O)NCC3CC3)n(-c3ccnc(C)c3)n2)cc(C(F)(F)F)c1 [Compound 5, N-(cyclopropylmethyl)-3-[[3-methoxy-5-(trifluoromethyl)phenyl]amino]-1-(2-methyl-4-pyridinyl)-1H-pyrazole-5-acetamide]	228.3	4	75.9
Cc1cc(-n2nc(Nc3cccc(OC(F)(F)F)c3)cc2CC(=O)NC2CC2)cc(C)n1 [Compound 118, N-cyclopropyl-1-(2,6-dimethyl-4-pyridinyl)-3-[[3-(trifluoromethoxy)phenyl]amino]-1H-pyrazole-5-acetamide]	230.8	2	324
Cc1cc(-n2nc(Nc3cccc(C(F)(F)F)c3)cc2CC(=O)NCC2CC2)ccn1 [Compound 47, N-(cyclopropylmethyl)-1-(2-methyl-4-pyridinyl)-3-[[3-(trifluoromethyl)phenyl]amino]-1H-pyrazole-5-acetamide]	207.5	4	219
COc1cc(Cl)cc(Nc2cc(CC(=O)NCC3CC3)n(-c3ccnc(C)c3)n2)c1 [Compound 81, 3-[(3-chloro-5-methoxyphenyl)amino]-N-(cyclopropylmethyl)-1-(2-methyl-4-pyridinyl)-1H-pyrazole-5-acetamide]	248.7	0	148
